# From patent US20090155209A1, “NOVEL MACROCYCLIC INHIBITORS OF HEPATITIS C VIRUS REPLICATION” (priority 2007, published 2009)
# Experiments:
# NS3-NS4 [1] = target: T1, NS3-NS4 (Hepatitis C virus genotype 1a, UniProt P27958); test: NS3-NS4 activity, IC50 (Example 37, Table 8); assay type: biochemical
# NS3-NS4 [2] = target: T1, NS3-NS4; test: cell-based; conditions: EC50, NS3-NS4 activity
# T1 sequence (P27958 1027-1657): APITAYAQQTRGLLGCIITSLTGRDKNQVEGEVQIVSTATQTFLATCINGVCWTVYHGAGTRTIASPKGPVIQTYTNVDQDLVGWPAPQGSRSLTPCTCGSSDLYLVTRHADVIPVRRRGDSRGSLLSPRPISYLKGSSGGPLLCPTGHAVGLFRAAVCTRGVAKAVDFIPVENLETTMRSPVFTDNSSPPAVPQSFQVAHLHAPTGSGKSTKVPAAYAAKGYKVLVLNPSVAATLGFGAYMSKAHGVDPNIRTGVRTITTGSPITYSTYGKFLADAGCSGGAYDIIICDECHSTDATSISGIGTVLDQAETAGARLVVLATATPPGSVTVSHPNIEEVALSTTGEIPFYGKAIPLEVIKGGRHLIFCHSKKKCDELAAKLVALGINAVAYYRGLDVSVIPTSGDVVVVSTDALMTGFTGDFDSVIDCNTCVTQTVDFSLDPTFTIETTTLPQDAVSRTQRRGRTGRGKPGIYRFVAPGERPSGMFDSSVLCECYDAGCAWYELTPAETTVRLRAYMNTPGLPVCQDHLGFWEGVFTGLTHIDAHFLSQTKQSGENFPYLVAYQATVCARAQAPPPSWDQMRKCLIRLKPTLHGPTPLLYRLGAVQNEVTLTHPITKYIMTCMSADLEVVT
# T1 sequence (P27958 1658-1711): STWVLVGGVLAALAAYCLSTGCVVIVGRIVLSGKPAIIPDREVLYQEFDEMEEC
smiles,measurement,setting,value
CC(C)(C)OC(=O)N[C@H]1CCCCC/C=C\[C@@H]2C[C@@]2(C(=O)NS(=O)(=O)c2ccccc2)NC(=O)[C@@H]2C[C@@H](OC(=O)N3Cc4cccc(F)c4C3)CN2C1=O [Compound 501],IC50,NS3-NS4 [1],< 100 nM
same,EC50,NS3-NS4 [2],< 100 nM
CC(C)(C)OC(=O)N[C@H]1CCCCC/C=C\[C@@H]2C[C@@]2(C(=O)NS(=O)(=O)Cc2ccccc2F)NC(=O)[C@@H]2C[C@@H](OC(=O)N3Cc4cccc(F)c4C3)CN2C1=O [Compound 507],IC50,NS3-NS4 [1],< 100 nM
same,EC50,NS3-NS4 [2],< 100 nM
CC(C)(C)OC(=O)N[C@H]1CCCCC/C=C\[C@@H]2C[C@@]2(C(=O)NS(=O)(=O)Cc2cccc(F)c2)NC(=O)[C@@H]2C[C@@H](OC(=O)N3Cc4cccc(F)c4C3)CN2C1=O [Compound 508],IC50,NS3-NS4 [1],< 100 nM
same,EC50,NS3-NS4 [2],100 to 1000 nM
CC(C)(C)OC(=O)N[C@H]1CCCCC/C=C\[C@@H]2C[C@@]2(C(=O)NS(=O)(=O)Cc2ccc(F)cc2)NC(=O)[C@@H]2C[C@@H](OC(=O)N3Cc4cccc(F)c4C3)CN2C1=O [Compound 509],IC50,NS3-NS4 [1],< 100 nM
same,EC50,NS3-NS4 [2],100 to 1000 nM
CC(C)(C)OC(=O)N[C@H]1CCCCC/C=C\[C@@H]2C[C@@]2(C(=O)NS(=O)(=O)Cc2ccccc2Cl)NC(=O)[C@@H]2C[C@@H](OC(=O)N3Cc4cccc(F)c4C3)CN2C1=O [Compound 510],IC50,NS3-NS4 [1],< 100 nM
same,EC50,NS3-NS4 [2],< 100 nM
CC(C)(C)OC(=O)N[C@H]1CCCCC/C=C\[C@@H]2C[C@@]2(C(=O)NS(=O)(=O)Cc2cccc(Cl)c2)NC(=O)[C@@H]2C[C@@H](OC(=O)N3Cc4cccc(F)c4C3)CN2C1=O [Compound 511],IC50,NS3-NS4 [1],< 100 nM
same,EC50,NS3-NS4 [2],< 100 nM
CC(C)(C)OC(=O)N[C@H]1CCCCC/C=C\[C@@H]2C[C@@]2(C(=O)NS(=O)(=O)Cc2ccc(Cl)cc2)NC(=O)[C@@H]2C[C@@H](OC(=O)N3Cc4cccc(F)c4C3)CN2C1=O [Compound 512],IC50,NS3-NS4 [1],< 100 nM
same,EC50,NS3-NS4 [2],< 100 nM
Cc1cccc(CS(=O)(=O)NC(=O)[C@@]23C[C@H]2/C=C\CCCCC[C@H](NC(=O)OC(C)(C)C)C(=O)N2C[C@H](OC(=O)N4Cc5cccc(F)c5C4)C[C@H]2C(=O)N3)c1 [Compound 514],IC50,NS3-NS4 [1],< 100 nM
same,EC50,NS3-NS4 [2],100 to 1000 nM
Cc1ccc(CS(=O)(=O)NC(=O)[C@@]23C[C@H]2/C=C\CCCCC[C@H](NC(=O)OC(C)(C)C)C(=O)N2C[C@H](OC(=O)N4Cc5cccc(F)c5C4)C[C@H]2C(=O)N3)cc1 [Compound 515],IC50,NS3-NS4 [1],< 100 nM
same,EC50,NS3-NS4 [2],< 100 nM
CC(C)(C)OC(=O)N[C@H]1CCCCC/C=C\[C@@H]2C[C@@]2(C(=O)NS(=O)(=O)Cc2cccc(C(F)(F)F)c2)NC(=O)[C@@H]2C[C@@H](OC(=O)N3Cc4cccc(F)c4C3)CN2C1=O [Compound 518],IC50,NS3-NS4 [1],< 100 nM
same,EC50,NS3-NS4 [2],100 to 1000 nM
CC(C)(C)OC(=O)N[C@H]1CCCCC/C=C\[C@@H]2C[C@@]2(C(=O)NS(=O)(=O)Cc2ccc(C(F)(F)F)cc2)NC(=O)[C@@H]2C[C@@H](OC(=O)N3Cc4cccc(F)c4C3)CN2C1=O [Compound 519],IC50,NS3-NS4 [1],< 100 nM
same,EC50,NS3-NS4 [2],100 to 1000 nM
CC(C)(C)OC(=O)N[C@H]1CCCCC/C=C\[C@@H]2C[C@@]2(C(=O)NS(=O)(=O)Cc2cc(F)ccc2F)NC(=O)[C@@H]2C[C@@H](OC(=O)N3Cc4cccc(F)c4C3)CN2C1=O [Compound 520],IC50,NS3-NS4 [1],< 100 nM
same,EC50,NS3-NS4 [2],< 100 nM
CC(C)(C)OC(=O)N[C@H]1CCCCC/C=C\[C@@H]2C[C@@]2(C(=O)NS(=O)(=O)Cc2c(F)cccc2F)NC(=O)[C@@H]2C[C@@H](OC(=O)N3Cc4cccc(F)c4C3)CN2C1=O [Compound 521],IC50,NS3-NS4 [1],< 100 nM
same,EC50,NS3-NS4 [2],< 100 nM
CC(C)(C)OC(=O)N[C@H]1CCCCC/C=C\[C@@H]2C[C@@]2(C(=O)NS(=O)(=O)Cc2ccc(F)c(F)c2)NC(=O)[C@@H]2C[C@@H](OC(=O)N3Cc4cccc(F)c4C3)CN2C1=O [Compound 522],IC50,NS3-NS4 [1],< 100 nM
same,EC50,NS3-NS4 [2],100 to 1000 nM
CC(C)(C)OC(=O)N[C@H]1CCCCC/C=C\[C@@H]2C[C@@]2(C(=O)NS(=O)(=O)Cc2cc(F)cc(F)c2)NC(=O)[C@@H]2C[C@@H](OC(=O)N3Cc4cccc(F)c4C3)CN2C1=O [Compound 523],IC50,NS3-NS4 [1],< 100 nM
same,EC50,NS3-NS4 [2],100 to 1000 nM
CC(C)(C)OC(=O)N[C@H]1CCCCC/C=C\[C@@H]2C[C@@]2(C(=O)NS(=O)(=O)Cc2ccc(Cl)cc2Cl)NC(=O)[C@@H]2C[C@@H](OC(=O)N3Cc4cccc(F)c4C3)CN2C1=O [Compound 524],IC50,NS3-NS4 [1],< 100 nM
same,EC50,NS3-NS4 [2],100 to 1000 nM
CC(C)(C)OC(=O)N[C@H]1CCCCC/C=C\[C@@H]2C[C@@]2(C(=O)NS(=O)(=O)Cc2cc(Cl)ccc2Cl)NC(=O)[C@@H]2C[C@@H](OC(=O)N3Cc4cccc(F)c4C3)CN2C1=O [Compound 525],IC50,NS3-NS4 [1],< 100 nM
same,EC50,NS3-NS4 [2],100 to 1000 nM
CC(C)(C)OC(=O)N[C@H]1CCCCC/C=C\[C@@H]2C[C@@]2(C(=O)NS(=O)(=O)Cc2ccc(Cl)c(Cl)c2)NC(=O)[C@@H]2C[C@@H](OC(=O)N3Cc4cccc(F)c4C3)CN2C1=O [Compound 526],IC50,NS3-NS4 [1],< 100 nM
same,EC50,NS3-NS4 [2],100 to 1000 nM
CC(C)(C)OC(=O)N[C@H]1CCCCC/C=C\[C@@H]2C[C@@]2(C(=O)NS(=O)(=O)Cc2c(Cl)cccc2Cl)NC(=O)[C@@H]2C[C@@H](OC(=O)N3Cc4cccc(F)c4C3)CN2C1=O [Compound 527],IC50,NS3-NS4 [1],< 100 nM
same,EC50,NS3-NS4 [2],< 100 nM
CC(C)(C)OC(=O)N[C@H]1CCCCC/C=C\[C@@H]2C[C@@]2(C(=O)NS(=O)(=O)Cc2cc(C(F)(F)F)cc(C(F)(F)F)c2)NC(=O)[C@@H]2C[C@@H](OC(=O)N3Cc4cccc(F)c4C3)CN2C1=O [Compound 528],IC50,NS3-NS4 [1],< 100 nM
same,EC50,NS3-NS4 [2],10000 to 50000 nM
CC(C)(C)OC(=O)N[C@H]1CCCCC/C=C\[C@@H]2C[C@@]2(C(=O)NS(=O)(=O)c2cccnc2Cl)NC(=O)[C@@H]2C[C@@H](OC(=O)N3Cc4cccc(F)c4C3)CN2C1=O [Compound 529],IC50,NS3-NS4 [1],< 100 nM
same,EC50,NS3-NS4 [2],< 100 nM
Cc1ccc(S(=O)(=O)NC(=O)[C@@]23C[C@H]2/C=C\CCCCC[C@H](NC(=O)OC(C)(C)C)C(=O)N2C[C@H](OC(=O)N4Cc5cccc(F)c5C4)C[C@H]2C(=O)N3)o1 [Compound 533],IC50,NS3-NS4 [1],< 100 nM
same,EC50,NS3-NS4 [2],< 100 nM
Cc1cc(S(=O)(=O)NC(=O)[C@@]23C[C@H]2/C=C\CCCCC[C@H](NC(=O)OC(C)(C)C)C(=O)N2C[C@H](OC(=O)N4Cc5cccc(F)c5C4)C[C@H]2C(=O)N3)oc1C [Compound 534],IC50,NS3-NS4 [1],< 100 nM
same,EC50,NS3-NS4 [2],100 to 1000 nM
CC(C)(C)OC(=O)N[C@H]1CCCCC/C=C\[C@@H]2C[C@@]2(C(=O)NS(=O)(=O)c2cc(Cl)cs2)NC(=O)[C@@H]2C[C@@H](OC(=O)N3Cc4cccc(F)c4C3)CN2C1=O [Compound 536],IC50,NS3-NS4 [1],< 100 nM
same,EC50,NS3-NS4 [2],< 100 nM
Cc1ccc(S(=O)(=O)NC(=O)[C@@]23C[C@H]2/C=C\CCCCC[C@H](NC(=O)OC(C)(C)C)C(=O)N2C[C@H](OC(=O)N4Cc5cccc(F)c5C4)C[C@H]2C(=O)N3)s1 [Compound 538],IC50,NS3-NS4 [1],< 100 nM
same,EC50,NS3-NS4 [2],< 100 nM
Cc1csc(S(=O)(=O)NC(=O)[C@@]23C[C@H]2/C=C\CCCCC[C@H](NC(=O)OC(C)(C)C)C(=O)N2C[C@H](OC(=O)N4Cc5cccc(F)c5C4)C[C@H]2C(=O)N3)c1 [Compound 539],IC50,NS3-NS4 [1],< 100 nM
same,EC50,NS3-NS4 [2],< 100 nM
COc1csc(S(=O)(=O)NC(=O)[C@@]23C[C@H]2/C=C\CCCCC[C@H](NC(=O)OC(C)(C)C)C(=O)N2C[C@H](OC(=O)N4Cc5cccc(F)c5C4)C[C@H]2C(=O)N3)c1 [Compound 541],IC50,NS3-NS4 [1],< 100 nM
same,EC50,NS3-NS4 [2],< 100 nM
CC(C)(C)OC(=O)N[C@H]1CCCCC/C=C\[C@@H]2C[C@@]2(C(=O)NS(=O)(=O)c2cc3ccccc3o2)NC(=O)[C@@H]2C[C@@H](OC(=O)N3Cc4cccc(F)c4C3)CN2C1=O [Compound 542],IC50,NS3-NS4 [1],< 100 nM
same,EC50,NS3-NS4 [2],100 to 1000 nM
C=CCC1(S(=O)(=O)NC(=O)[C@@]23C[C@H]2/C=C\CCCCC[C@H](NC(=O)OC(C)(C)C)C(=O)N2C[C@H](OC(=O)N4Cc5cccc(F)c5C4)C[C@H]2C(=O)N3)CC1 [Compound 543],IC50,NS3-NS4 [1],< 100 nM
same,EC50,NS3-NS4 [2],< 100 nM
CCCS(=O)(=O)NC(=O)[C@@]12C[C@H]1/C=C\CCCCC[C@H](NC(=O)OC(C)(C)C)C(=O)N1C[C@H](OC(=O)N3Cc4cccc(F)c4C3)C[C@H]1C(=O)N2 [Compound 550],IC50,NS3-NS4 [1],< 100 nM
same,EC50,NS3-NS4 [2],< 100 nM
CC(C)CS(=O)(=O)NC(=O)[C@@]12C[C@H]1/C=C\CCCCC[C@H](NC(=O)OC(C)(C)C)C(=O)N1C[C@H](OC(=O)N3Cc4cccc(F)c4C3)C[C@H]1C(=O)N2 [Compound 551],IC50,NS3-NS4 [1],< 100 nM
same,EC50,NS3-NS4 [2],< 100 nM
CC(C)(C)OC(=O)N[C@H]1CCCCCCC[C@@H]2C[C@@]2(C(=O)NS(=O)(=O)c2ccccc2)NC(=O)[C@@H]2C[C@@H](OC(=O)N3Cc4cccc(F)c4C3)CN2C1=O [Compound 601],IC50,NS3-NS4 [1],< 100 nM
same,EC50,NS3-NS4 [2],< 100 nM
Cc1ccccc1S(=O)(=O)NC(=O)[C@@]12C[C@H]1CCCCCCC[C@H](NC(=O)OC(C)(C)C)C(=O)N1C[C@H](OC(=O)N3Cc4cccc(F)c4C3)C[C@H]1C(=O)N2 [Compound 602],IC50,NS3-NS4 [1],< 100 nM
same,EC50,NS3-NS4 [2],< 100 nM
CC(C)(C)OC(=O)N[C@H]1CCCCCCC[C@@H]2C[C@@]2(C(=O)NS(=O)(=O)c2ccccc2Cl)NC(=O)[C@@H]2C[C@@H](OC(=O)N3Cc4cccc(F)c4C3)CN2C1=O [Compound 603],IC50,NS3-NS4 [1],< 100 nM
same,EC50,NS3-NS4 [2],< 100 nM
CC(C)(C)OC(=O)N[C@H]1CCCCCCC[C@@H]2C[C@@]2(C(=O)NS(=O)(=O)c2ccc(Cl)cc2)NC(=O)[C@@H]2C[C@@H](OC(=O)N3Cc4cccc(F)c4C3)CN2C1=O [Compound 604],IC50,NS3-NS4 [1],< 100 nM
same,EC50,NS3-NS4 [2],< 100 nM
CC(C)(C)OC(=O)N[C@H]1CCCCCCC[C@@H]2C[C@@]2(C(=O)NS(=O)(=O)c2ccccc2C(F)(F)F)NC(=O)[C@@H]2C[C@@H](OC(=O)N3Cc4cccc(F)c4C3)CN2C1=O [Compound 605],IC50,NS3-NS4 [1],< 100 nM
same,EC50,NS3-NS4 [2],< 100 nM
CC(C)(C)OC(=O)N[C@H]1CCCCCCC[C@@H]2C[C@@]2(C(=O)NS(=O)(=O)c2cc(Cl)sc2Cl)NC(=O)[C@@H]2C[C@@H](OC(=O)N3Cc4cccc(F)c4C3)CN2C1=O [Compound 606],IC50,NS3-NS4 [1],< 100 nM
same,EC50,NS3-NS4 [2],< 100 nM
Cc1ccccc1CS(=O)(=O)NC(=O)[C@@]12C[C@H]1CCCCCCC[C@H](NC(=O)OC(C)(C)C)C(=O)N1C[C@H](OC(=O)N3Cc4cccc(F)c4C3)C[C@H]1C(=O)N2 [Compound 613],IC50,NS3-NS4 [1],< 100 nM
same,EC50,NS3-NS4 [2],< 100 nM
Cc1ccc(C)c(CS(=O)(=O)NC(=O)[C@@]23C[C@H]2CCCCCCC[C@H](NC(=O)OC(C)(C)C)C(=O)N2C[C@H](OC(=O)N4Cc5cccc(F)c5C4)C[C@H]2C(=O)N3)c1 [Compound 629],IC50,NS3-NS4 [1],< 100 nM
same,EC50,NS3-NS4 [2],< 100 nM
